Measured values as given in patent publication US6737383B1, “Herbicidal oxadiazolidines” (priority 1999, dated 2004).

Legend:
bedstraw = test: Test B pre/postemergence bedstraw; format: in vivo, Galium aparine
Outline: (§1)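 Response is a visual 0-to-10 score relative to untreated plants, where 0 means no effect and 10 means complete control, taken twelve to sixteen days after application. Treatments went onto soil at planting and onto foliage of 1- to 4-leaf plants, using a surfactant-containing non-phytotoxic solvent.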

blackgrass = test: Test B pre/postemergence blackgrass; format: in vivo, Alopecurus myosuroides
Outline: as §1

surinam grass = test: Test B pre/postemergence surinam grass; format: in vivo, Brachiaria decumbens
Outline: as §1

cocklebur = test: Test B pre/postemergence cocklebur; format: in vivo, Xanthium strumarium
Outline: as §1

crabgrass = test: Test B pre/postemergence crabgrass; format: in vivo, Digitaria sanguinalis
Outline: as §1

giant foxtail = test: Test B pre/postemergence giant foxtail; format: in vivo, Setaria faberii
Outline: as §1

morningglory = test: Test B pre/postemergence morningglory; format: in vivo, Ipomoea hederacea
Outline: as §1

pigweed = test: Test B pre/postemergence pigweed; format: in vivo, Amaranthus retroflexus
Outline: as §1

sugar beet = test: Test B pre/postemergence sugar beet; format: in vivo, Beta vulgaris
Outline: as §1

velvetleaf = test: Test B pre/postemergence velvetleaf; format: in vivo, Abutilon theophrasti
Outline: as §1

wheat = test: Test B pre/postemergence wheat; format: in vivo, Triticum aestivum
Outline: as §1

wild oat = test: Test B pre/postemergence wild oat; format: in vivo, Avena fatua
Outline: as §1

purple nutsedge = test: Test B pre/postemergence purple nutsedge; format: in vivo, Cyperus rotundus
Outline: as §1

rice = test: Test B flood test rice; format: in vivo, Oryza sativa
Outline: (§2)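 Flood test on plants grown to the 2-leaf stage; treated plants kept in greenhouse twelve to sixteen days, then visually rated against controls on a 0 (no effect) to 10 (complete control) scale.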

duck salad = test: Test B flood test duck salad; format: in vivo, Heteranthera limosa
Outline: as §2

bamyardgrass = test: Test B flood test barnyardgrass; format: in vivo, Echinochloa crus-galli
Outline: as §2

[1] = Preemergence, Rate 62 g/ha, scale of 0 to 10 where 0 is no effect and 10 is complete control
[2] = Preemergence, Rate 125 g/ha, 0 is no effect, 10 is complete control
[3] = Preemergence, Rate 250 g/ha, scale 0 to 10, 0 is no effect, 10 is complete control
[4] = Preemergence, Rate 500 g/ha, scale of 0 to 10 where 0 is no effect and 10 is complete control
[5] = Rate 62 g/ha, Postemergence, scale of 0 to 10 where 0 is no effect and 10 is complete control
[6] = Rate 125 g/ha, Postemergence, scale 0 to 10
[7] = Rate 500 g/ha, Postemergence, scale 0 to 10
[8] = Rate 62 g/ha, headed Pre-emergence (flood test species), scale 0 to 10 (0 no effect, 10 complete control)
[9] = Rate 125 g/ha, Pre-emergence, flood test species, scale 0 to 10 where 0 is no effect and 10 is complete control
[10] = Rate 250 g/ha, Pre-emergence, flood-test species, scale 0 to 10, 0 is no effect, 10 is complete control
[11] = Rate 500 g/ha, headed Pre-emergence (flood test species), scale 0 to 10 (0 no effect, 10 complete control)

## Cc1nc(C)c(-n2c(=O)on(C(=O)N(c3ccc(F)cc3)C(C)C)c2=O)s1 [Compound 198]
bedstraw; [1]
  Bedstraw plant response rating: 0
bedstraw; [2]
  Bedstraw plant response rating (0 to 10 scale): 0
bedstraw; [3]
  Bedstraw plant response rating: 0
bedstraw; [4]
  Plant response rating, Bedstraw: 0
bedstraw; [5]
  Bedstraw plant response rating: 0
bedstraw; [6]
  Bedstraw plant response rating: 0
bedstraw; Rate 250 g/ha, Postemergence
  Plant response rating (0 to 10; 0 is no effect, 10 is complete control), Bedstraw: 0
blackgrass; [1]
  Blackgrass plant response rating: 0
blackgrass; [2]
  Blackgrass plant response rating (0 to 10 scale): 0
blackgrass; [3]
  Blackgrass plant response rating: 0
blackgrass; [4]
  Plant response rating, Blackgrass: 0
blackgrass; [5]
  Blackgrass plant response rating: 0
blackgrass; [6]
  Blackgrass plant response rating: 0
blackgrass; Rate 250 g/ha, Postemergence
  Plant response rating (0 to 10; 0 is no effect, 10 is complete control), Blackgrass: 0
blackgrass; [7]
  Blackgrass plant response rating: 0
Surinam grass; [1]
  B. signalgrass plant response rating: 0
Surinam grass; [2]
  B. signalgrass plant response rating (0 to 10 scale): 0
Surinam grass; [3]
  B. signalgrass plant response rating: 0
Surinam grass; [4]
  Plant response rating, B. signalgrass: 0
Surinam grass; [5]
  B. signalgrass plant response rating: 0
Surinam grass; Rate 125 g/ha, Postemergence, scale 0 (no effect) to 10 (complete control)
  B. signalgrass plant response rating: 0
Surinam grass; Rate 250 g/ha, Postemergence, scale 0 to 10, 0 is no effect, 10 is complete control
  Plant response rating, B. signalgrass: 0
Surinam grass; Rate 500 g/ha, Postemergence, scale 0 to 10, 0 no effect, 10 complete control
  B. signalgrass plant response rating: 0
cocklebur; [1]
  Cocklebur plant response rating: 0
cocklebur; [2]
  Cocklebur plant response rating (0 to 10 scale): 0
cocklebur; [3]
  Cocklebur plant response rating: 0
cocklebur; [4]
  Plant response rating, Cocklebur: 0
cocklebur; [5]
  Cocklebur plant response rating: 0
cocklebur; [6]
  Cocklebur plant response rating: 0
cocklebur; Rate 250 g/ha, Postemergence
  Plant response rating (0 to 10; 0 is no effect, 10 is complete control), Cocklebur: 0
cocklebur; [7]
  Cocklebur plant response rating: 0
crabgrass; [1]
  Crabgrass plant response rating: 0
crabgrass; [2]
  Crabgrass plant response rating (0 to 10 scale): 0
crabgrass; [3]
  Crabgrass plant response rating: 0
crabgrass; [4]
  Plant response rating, Crabgrass: 0
crabgrass; [5]
  Crabgrass plant response rating: 0
crabgrass; [6]
  Crabgrass plant response rating: 0
crabgrass; Rate 250 g/ha, Postemergence
  Plant response rating (0 to 10; 0 is no effect, 10 is complete control), Crabgrass: 0
crabgrass; [7]
  Crabgrass plant response rating: 0
Giant foxtail; [1]
  Giant foxtail plant response rating: 0
Giant foxtail; [2]
  Giant foxtail plant response rating (0 to 10 scale): 0
Giant foxtail; [3]
  Giant foxtail plant response rating: 0
Giant foxtail; [4]
  Plant response rating, Giant foxtail: 3
Giant foxtail; [5]
  Giant foxtail plant response rating: 0
Giant foxtail; [6]
  Giant foxtail plant response rating: 0
Giant foxtail; Rate 250 g/ha, Postemergence
  Plant response rating (0 to 10; 0 is no effect, 10 is complete control), Giant foxtail: 0
Giant foxtail; [7]
  Giant foxtail plant response rating: 0
morningglory; [1]
  Morningglory plant response rating: 0
morningglory; [2]
  Morningglory plant response rating (0 to 10 scale): 0
morningglory; [3]
  Morningglory plant response rating: 0
morningglory; [4]
  Plant response rating, Morningglory: 0
morningglory; [5]
  Morningglory plant response rating: 0
morningglory; [6]
  Morningglory plant response rating: 0
morningglory; Rate 250 g/ha, Postemergence
  Plant response rating (0 to 10; 0 is no effect, 10 is complete control), Morningglory: 2
morningglory; [7]
  Morningglory plant response rating: 3
pigweed; [1]
  Redroot pigweed plant response rating: 0
pigweed; [2]
  Redroot pigweed plant response rating (0 to 10 scale): 0
pigweed; [3]
  Redroot pigweed plant response rating: 0
pigweed; [4]
  Plant response rating, Redroot pigweed: 0
pigweed; [5]
  Redroot pigweed plant response rating: 0
pigweed; [6]
  Redroot pigweed plant response rating: 0
pigweed; Rate 250 g/ha, Postemergence
  Plant response rating (0 to 10; 0 is no effect, 10 is complete control), Redroot pigweed: 0
pigweed; [7]
  Redroot pigweed plant response rating: 0
Sugar beet; [1]
  Sugarbeets plant response rating: 0
Sugar beet; [2]
  Sugarbeets plant response rating (0 to 10 scale): 0
Sugar beet; [3]
  Sugarbeets plant response rating: 0
Sugar beet; [4]
  Plant response rating, Sugarbeets: 0
Sugar beet; [5]
  Sugarbeets plant response rating: 0
Sugar beet; [6]
  Sugarbeets plant response rating: 0
Sugar beet; Rate 250 g/ha, Postemergence
  Plant response rating (0 to 10; 0 is no effect, 10 is complete control), Sugarbeets: 0
Sugar beet; [7]
  Sugarbeets plant response rating: 0
velvetleaf; [1]
  Velvetleaf plant response rating: 0
velvetleaf; [3]
  Velvetleaf plant response rating: 0
velvetleaf; [4]
  Plant response rating, Velvetleaf: 0
velvetleaf; [5]
  Velvetleaf plant response rating: 0
velvetleaf; [6]
  Velvetleaf plant response rating: 0
velvetleaf; Rate 250 g/ha, Postemergence
  Plant response rating (0 to 10; 0 is no effect, 10 is complete control), Velvetleaf: 0
wheat; [1]
  Wheat plant response rating: 0
wheat; [3]
  Wheat plant response rating: 0
wheat; [4]
  Plant response rating, Wheat: 0
wheat; [5]
  Wheat plant response rating: 0
wheat; [6]
  Wheat plant response rating: 0
wheat; Rate 250 g/ha, Postemergence
  Plant response rating (0 to 10; 0 is no effect, 10 is complete control), Wheat: 0
Wild oat; [1]
  Wild oats plant response rating: 0
Wild oat; [3]
  Wild oats plant response rating: 0
Wild oat; [4]
  Plant response rating, Wild oats: 0
Wild oat; [5]
  Wild oats plant response rating: 0
Wild oat; [6]
  Wild oats plant response rating: 0
Wild oat; Rate 250 g/ha, Postemergence
  Plant response rating (0 to 10; 0 is no effect, 10 is complete control), Wild oats: 0
Purple nutsedge; [1]
  Nutsedge plant response rating: 0
Purple nutsedge; [2]
  Nutsedge plant response rating (0 to 10 scale): 0
Purple nutsedge; [3]
  Nutsedge plant response rating: 0
Purple nutsedge; [4]
  Plant response rating, Nutsedge: 0
Purple nutsedge; [5]
  Nutsedge plant response rating: 0
Purple nutsedge; [6]
  Nutsedge plant response rating: 0
Purple nutsedge; Rate 250 g/ha, Postemergence
  Plant response rating (0 to 10; 0 is no effect, 10 is complete control), Nutsedge: 0
Purple nutsedge; [7]
  Nutsedge plant response rating: 0
rice; [8]
  Rice plant response rating: 0
rice; [9]
  Rice plant response rating: 0
rice; [10]
  Rice plant response rating: 0
rice; [11]
  Plant response rating, Rice: 0
Duck salad; [8]
  Ducksalad plant response rating: 0
Duck salad; [9]
  Ducksalad plant response rating: 0
Duck salad; [10]
  Ducksalad plant response rating: 0
Duck salad; [11]
  Plant response rating, Ducksalad: 0
bamyardgrass; [8]
  Barnyardgrass plant response rating: 0
bamyardgrass; [9]
  Barnyardgrass plant response rating: 0
bamyardgrass; [10]
  Barnyardgrass plant response rating: 0
bamyardgrass; [11]
  Plant response rating, Barnyardgrass: 0
